# Test results taken from paper PMC12680549, “Impact of Seasonal Variation on Antioxidant, Enzyme Inhibitory, and Anti‐Inflammatory Potentials of Cistus creticus Leaf Extracts” (ChemistryOpen, 2025).
# Tested on: T1, urease
# T1 construct: gene urea amidohydrolase; the jack bean enzyme is only a guess from the usual assay; Helicobacter pylori is named only as background
# Test: phenol-hypochlorite assay, […] nm
# Assay type: biochemical, Canavalia ensiformis
# Settings: 17 mM urea, 30 °C, 50 min; enzyme source not stated
structure (smiles),measurement,value
NC(N)=S [Thiourea],Antiurease / IC50 μg mL^-1,11.57 ± 0.68 µg/mL
